Measurements taken from patent US5385884A, “Lipopeptide derivatives” (Merck & Co. Inc., priority 1991, dated 1995).

Legend:
[1] = system: C. albicans; assay: Minimum fungicidal concentration, microbroth dilution assay in YNBD; type: cell-based
Procedure: The minimum inhibitory concentrations (MICs) were recorded as the lowest concentrations of drug showing no visible growth.
After recording the MIC, the plates were shaken to resuspend the cells. […] The MFC is defined as the lowest concentration of drug showing no growth or less than 4 colonies per spot.

[2] = system: Pneumocystis carinii; assay: Pneumocystis carinii pneumonia in immunosuppressed rats; type: in vivo, Sprague-Dawley rats; conditions: intraperitoneally (I.P.) twice daily for four days
Procedure: In a representative study, the effectiveness of Compound A-la was determined. Sprague-Dawley rats (weighing approximately 250 grams) were immunosuppressed with dexasone in the drinking water (2.0 mg/L) and maintained on a low protein diet for five weeks to induce the development of pneumocystis pneumonia from a latent infection. […] Six rats (weighing approximately 150 grams) were injected twice daily for four days intravenously (I.V.) via the tail vein with Compound A-la in 0.25 ml of vehicle (distilled water). A vehicle control was also carried out. All animals continued to receive dexasone in the drinking water and low protein diet during the treatment period. At the completion of the treatment, all animals were sacrificed, the lungs were removed and processed, and the extent of disease determined by microscopic analysis of stained slides.
In a similar experiment, except that the rats were injected intraperitoneally (I.P.) twice daily for four days, the animals were sacrificed, the lungs removed and processed, and the extent of disease determined by microscopic analysis of stained slides.

Question: What does the source list for “1-[4-hydroxy-N2-(10,12-dimethyl-1-oxotetradecyl)-ornithine]-4-[3-hydroxy-4' -O-phosphoryl-homotyrosine]-5-[3-hydroxyglutamine]-6-[3-hydroxyproline]echi nocandin B disodium salt [Compound A-2a]”?
Answer: Minimum Fungicidal Concentration ([1]; C. albicans MY 1028): 2 µg/mL; Minimum Fungicidal Concentration ([1]; C. albicans MY 1208): 2 µg/mL; ED90 for eliminating P. carinii cysts [2]: approximately 0.6 mg/kg
